# Tests used:
# [1] = biological target: Interleukin-1 receptor-associated kinase 1 (Homo sapiens, UniProt P51617); assay: IRAK1 Enzymatic Assay: IRAK1 is a human purified recombinant enzyme (His-TEV-IRAK1 (194-712)) In this assay, IRAK-1 hydrolyses ATP and autophosphorylates.Measurement of IRAK-1 inhibition is performed in streptavidin coated 384 well FlashPlate (PerkinElmer #SMP410A).His-TEV-IRAK-1 (15 ng/well), ATP (1 μM, [33P]ATP 0.25 μCi/well) and compounds in DMSO (range of concentrations from 20 μM to 1 nM) or controls (2% DMSO) are incubated for 3 hours at 30° C. in assay buffer: Hepes pH 7.0 50 mM, Fatty acid-free BSA 0.1%, Dithiothreitol DTT 2 mM, MgCl2 10 mM, EGTA 0.5 mM, Triton-X-100 0.01%. Kinase reaction is stopped by addition of EDTA. Supernatant is discarded, plates are washed three times with 150 mM NaCl and radioactivity is then measured in a Microbeta Trilux reader.
# [2] = biological target: T1, Interleukin-1 receptor-associated kinase 4 (Homo sapiens, UniProt Q9NWZ3); assay: IRAK4 Enzymatic Assay: IRAK4 is a human purified recombinant enzyme ([…] IRAK4 hydrolyses ATP, autophosphorylates and phosphorylates a Serine/Threonine generic peptidic substrate (STK: 61ST1BLC from CisBio International based in Bagnols/Cèze FR).Measurement of IRAK-4 inhibition is performed in streptavidin coated 384 well FlashPlate (PerkinElmer #SMP410A). His-TEV-IRAK4 (20 ng/well), ATP (2 μM, [33P]ATP 0.25 μCi/well), STK1-biotin peptide (300 nM) and compounds in DMSO (range of concentrations from 20 μM to 1 nM) or controls (2% DMSO) are incubated for 3 hours at 30° C. in assay buffer: Hepes pH 7.0 50 mM, Fatty acid-free BSA 0.1%, Dithiothreitol DTT 2 mM, MgCl2 10 mM, EGTA 0.5 mM, Tween-20 0.01%, MnCl2 5 mM.Kinase reaction is stopped by addition of EDTA. Supernatant is discarded, plates are washed three times with 150 mM NaCl and radioactivity is then measured in a Microbeta Trilux reader.
# T1 sequence (Q9NWZ3 whole entry): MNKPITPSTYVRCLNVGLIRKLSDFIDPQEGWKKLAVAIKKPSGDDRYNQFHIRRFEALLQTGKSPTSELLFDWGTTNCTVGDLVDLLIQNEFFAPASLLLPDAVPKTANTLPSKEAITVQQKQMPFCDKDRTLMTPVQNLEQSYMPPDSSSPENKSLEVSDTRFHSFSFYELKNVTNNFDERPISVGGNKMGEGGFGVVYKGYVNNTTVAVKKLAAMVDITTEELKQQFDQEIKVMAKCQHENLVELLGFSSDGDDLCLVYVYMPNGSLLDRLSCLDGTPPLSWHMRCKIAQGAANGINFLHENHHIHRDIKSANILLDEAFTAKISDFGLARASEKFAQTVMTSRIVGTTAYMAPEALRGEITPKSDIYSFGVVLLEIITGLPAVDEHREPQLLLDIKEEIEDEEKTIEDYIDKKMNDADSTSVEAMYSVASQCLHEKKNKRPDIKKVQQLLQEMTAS
# Chain of Interleukin-1 receptor-associated kinase 1 (P51617 whole entry): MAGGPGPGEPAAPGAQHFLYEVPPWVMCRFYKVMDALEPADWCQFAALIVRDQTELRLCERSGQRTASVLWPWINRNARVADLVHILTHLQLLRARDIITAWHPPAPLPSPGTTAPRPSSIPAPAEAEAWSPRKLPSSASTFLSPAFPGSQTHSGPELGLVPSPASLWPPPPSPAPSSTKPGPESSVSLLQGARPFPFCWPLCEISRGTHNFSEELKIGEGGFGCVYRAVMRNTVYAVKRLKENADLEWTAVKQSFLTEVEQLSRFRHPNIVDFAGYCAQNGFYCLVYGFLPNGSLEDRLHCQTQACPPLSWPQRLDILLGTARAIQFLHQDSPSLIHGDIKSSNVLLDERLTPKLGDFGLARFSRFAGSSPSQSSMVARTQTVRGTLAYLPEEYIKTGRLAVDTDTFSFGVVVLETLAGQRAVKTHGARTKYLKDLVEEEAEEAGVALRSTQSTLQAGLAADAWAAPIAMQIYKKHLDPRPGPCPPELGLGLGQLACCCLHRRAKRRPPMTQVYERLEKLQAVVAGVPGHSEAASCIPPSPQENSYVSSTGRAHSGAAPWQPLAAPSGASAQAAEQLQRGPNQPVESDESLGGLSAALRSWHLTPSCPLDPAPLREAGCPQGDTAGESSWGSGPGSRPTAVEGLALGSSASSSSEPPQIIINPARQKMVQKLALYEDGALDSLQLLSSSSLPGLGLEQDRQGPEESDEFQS
compound,measurement,setting,value
O=C1Nc2nc3ccccc3n2CCn2cc(cn2)-c2ccc(=O)n(n2)Cc2cccc1c2,IC50,[1],< 100 nM
same,IC50,[2],< 100 nM

# Source: ChEMBL document CHEMBL5725580, “Macrocyclic pyridazinone derivatives” (2018)
